Holding throughout (type): functional
Experiment [1] deals with Penicillium citrinum. The experiment is described as follows: Antifungal activity against Penicillium citrinum NCIM 768 at 200 ug/ml after 72 hr by cup-plate method. The conditions noted are these: NCIM 768, 72 h, read-out: IZ.
Experiment [2] relates to Aspergillus flavus. In words: Antifungal activity against Aspergillus flavus MTCC 277 at 200 ug/ml after 72 hr by cup-plate method. The conditions noted are these: MTCC 277, 72 h, read-out: IZ.
The test system of experiment [3] is Aspergillus niger. The experiment is described as follows: Antifungal activity against Aspergillus niger MTCC 281 at 200 ug/ml after 72 hr by cup-plate method. The conditions noted are these: MTCC 281, 72 h, read-out: IZ.
Experiment [4] deals with Monascus purpureus. In words: Antifungal activity against Monascus purpureus MTCC 369 at 200 ug/ml after 72 hr by cup-plate method. The conditions noted are these: MTCC 369, 72 h, read-out: IZ.
Experiment [5] concerns Aspergillus flavus. In words: Antifungal activity against Aspergillus flavus MTCC 277 at 100 ug/ml after 72 hr by cup-plate method. The conditions noted are these: MTCC 277, 72 h, read-out: IZ.
For experiment [6], the system named is Monascus purpureus. In words: Antifungal activity against Monascus purpureus MTCC 369 at 100 ug/ml after 72 hr by cup-plate method. The conditions noted are these: MTCC 369, 72 h, read-out: IZ.
For experiment [7], the system named is Penicillium citrinum. In words: Antifungal activity against Penicillium citrinum NCIM 768 at 100 ug/ml after 72 hr by cup-plate method. The conditions noted are these: NCIM 768, 72 h, read-out: IZ.
Experiment [8] concerns Aspergillus niger. In words: Antifungal activity against Aspergillus niger MTCC 281 at 100 ug/ml after 72 hr by cup-plate method. The conditions noted are these: MTCC 281, 72 h, read-out: IZ.

Turning to `Clc1nc2ccccc2cc1CNc1ccccc1`, the zone of inhibition at 200 µg/mL in the experiment with Penicillium citrinum [1] is 8.06 mm; with Aspergillus flavus [2], 12.4 mm; in the experiment on Aspergillus niger [3], 12 mm; in the experiment on Monascus purpureus [4], 7.7 mm.

Consider `Clc1ccc(NCc2cc3ccccc3nc2Cl)cc1`, for which the zone of inhibition at 200 µg/mL in the experiment on Penicillium citrinum [1] amounted to 10.3 mm; with Aspergillus flavus [2], 16 mm; in the experiment with Aspergillus niger [3], 15.9 mm; in the experiment with Monascus purpureus [4], 9.73 mm.

As to `Cc1ccc(NCc2cc3ccccc3nc2Cl)cc1`, the zone of inhibition at 200 µg/mL was 8.06 mm in the experiment on Penicillium citrinum [1], 12.8 mm with Aspergillus flavus [2], 10.9 mm with Aspergillus niger [3] and 7.63 mm in the experiment on Monascus purpureus [4].

Consider `Clc1nc2ccccc2cc1CNc1ccc(Br)cc1`, for which the zone of inhibition at 200 µg/mL with Penicillium citrinum [1] turned out to be 9.86 mm; in the experiment with Aspergillus flavus [2], 10.5 mm; in the experiment with Aspergillus niger [3] it was 13.7 mm; with Monascus purpureus [4] it was 8 mm.

For `Clc1cccc(NCc2cc3ccccc3nc2Cl)c1`, the zone of inhibition at 200 µg/mL in the experiment on Penicillium citrinum [1] was found to be 8.03 mm; with Aspergillus flavus [2], 11.6 mm; in the experiment on Aspergillus niger [3], 13.4 mm; in the experiment on Monascus purpureus [4], 9.63 mm.

Take `COc1ccc(NCc2cc3ccccc3nc2Cl)cc1`: the zone of inhibition at 200 µg/mL turned out to be 7.63 mm with Penicillium citrinum [1], 13 mm in the experiment with Aspergillus flavus [2], 10.8 mm in the experiment on Aspergillus niger [3] and 7.66 mm with Monascus purpureus [4].

Consider `Fc1ccc(NCc2cc3ccccc3nc2Cl)cc1`, for which the zone of inhibition at 200 µg/mL in the experiment on Penicillium citrinum [1] is 8.53 mm; in the experiment with Aspergillus flavus [2] it was 15 mm; in the experiment with Aspergillus niger [3], 14.8 mm; in the experiment on Monascus purpureus [4] it was 9.8 mm.

For `O=[N+]([O-])c1ccc(NCc2cc3ccccc3nc2Cl)cc1`, the zone of inhibition at 200 µg/mL worked out at 6.13 mm in the experiment with Penicillium citrinum [1], 8.33 mm in the experiment with Aspergillus flavus [2], 8.06 mm with Aspergillus niger [3] and 7.7 mm in the experiment with Monascus purpureus [4].

For the compound `Cc1cccc(NCc2cc3ccccc3nc2Cl)c1`, the zone of inhibition at 200 µg/mL with Penicillium citrinum [1] worked out at 5.73 mm; in the experiment with Aspergillus flavus [2], 10.1 mm; with Aspergillus niger [3] it was 9.53 mm; in the experiment with Monascus purpureus [4], 7.6 mm.

As for `Cc1ccccc1NCc1cc2ccccc2nc1Cl`, the zone of inhibition at 200 µg/mL is 7.03 mm in the experiment with Penicillium citrinum [1], 7.03 mm in the experiment on Aspergillus flavus [2], 8.66 mm in the experiment with Aspergillus niger [3] and 6.4 mm with Monascus purpureus [4].

For `Fc1ccc(NCc2cc3ccccc3nc2Cl)cc1Cl`, the zone of inhibition at 200 µg/mL amounted to 9.73 mm in the experiment with Penicillium citrinum [1], 19.7 mm with Aspergillus flavus [2], 17.8 mm with Aspergillus niger [3] and 11.5 mm with Monascus purpureus [4].

In the case of `Clc1ccccc1NCc1cc2ccccc2nc1Cl`, the zone of inhibition at 200 µg/mL is 7.06 mm in the experiment on Penicillium citrinum [1], 10.6 mm in the experiment with Aspergillus flavus [2], 13.9 mm in the experiment with Aspergillus niger [3] and 7.33 mm in the experiment with Monascus purpureus [4].

With `Clc1ccc(NCc2cc3ccccc3nc2Cl)cc1Cl`, the zone of inhibition at 200 µg/mL in the experiment with Penicillium citrinum [1] was 8.76 mm; in the experiment with Aspergillus flavus [2], 18.7 mm; in the experiment with Aspergillus niger [3] it was 19.6 mm; in the experiment on Monascus purpureus [4], 9.7 mm.

Turning to `Clc1nc2ccccc2cc1CNC1CCCCC1`, the zone of inhibition at 200 µg/mL in the experiment with Aspergillus niger [3] was determined as 6.27 mm.

On to `CCCCNCc1cc2ccccc2nc1Cl`, for which the zone of inhibition at 200 µg/mL in the experiment on Aspergillus flavus [2] was 8.25 mm; in the experiment on Aspergillus niger [3], 9.47 mm.

For `Clc1nc2ccccc2cc1CNCc1ccccc1`, the zone of inhibition at 200 µg/mL is 9.06 mm in the experiment on Penicillium citrinum [1], 14.5 mm in the experiment with Aspergillus flavus [2], 15.7 mm in the experiment with Aspergillus niger [3] and 8.4 mm with Monascus purpureus [4].

Regarding `CN(Cc1cc2ccccc2nc1Cl)c1ccccc1`, the zone of inhibition at 200 µg/mL with Penicillium citrinum [1] is 9.74 mm; in the experiment on Aspergillus flavus [2], 14.2 mm; with Aspergillus niger [3] it was 13.2 mm; with Monascus purpureus [4] it was 8.09 mm.

For `CN(Cc1cc2ccccc2nc1Cl)c1ccc(Cl)cc1`, the zone of inhibition at 200 µg/mL in the experiment on Penicillium citrinum [1] was 9.85 mm; with Aspergillus flavus [2] it was 17.7 mm; in the experiment with Aspergillus niger [3], 17.1 mm; with Monascus purpureus [4], 10.5 mm.

Turning to `CN(Cc1cc2ccccc2nc1Cl)c1cccc(Cl)c1`, the zone of inhibition at 200 µg/mL came out at 11.1 mm with Penicillium citrinum [1], 12.1 mm with Aspergillus flavus [2], 15.2 mm in the experiment with Aspergillus niger [3] and 9.63 mm with Monascus purpureus [4].

Take `CN(Cc1cc2ccccc2nc1Cl)c1ccc(F)cc1`: the zone of inhibition at 200 µg/mL in the experiment with Penicillium citrinum [1] stood at 9.77 mm; in the experiment on Aspergillus flavus [2] it was 17.1 mm; with Aspergillus niger [3] it was 15.9 mm; in the experiment with Monascus purpureus [4], 11.5 mm.

Take `CN(Cc1cc2ccccc2nc1Cl)c1ccc(F)c(Cl)c1`: the zone of inhibition at 200 µg/mL in the experiment with Penicillium citrinum [1] was found to be 10.4 mm; with Aspergillus flavus [2] it was 20.8 mm; with Aspergillus niger [3], 19.4 mm; in the experiment on Monascus purpureus [4], 13.1 mm.

On to `CN(Cc1cc2ccccc2nc1Cl)c1ccc(Cl)c(Cl)c1`, for which the zone of inhibition at 200 µg/mL in the experiment on Penicillium citrinum [1] turned out to be 11.1 mm; with Aspergillus flavus [2] it was 19.5 mm; in the experiment on Aspergillus niger [3], 21.1 mm; with Monascus purpureus [4] it was 10.4 mm.

Take `CN(C/C=C/C#CC(C)(C)C)Cc1cccc2ccccc12` [TERBINAFINE]: the zone of inhibition at 100 µg/mL in the experiment with Aspergillus flavus [5] came out at 25.1 mm; in the experiment on Monascus purpureus [6], 26.2 mm; with Penicillium citrinum [7], 21.8 mm; in the experiment on Aspergillus niger [8] it was 24.7 mm.
